pEC50: −log10 of the molar value.
Assays:
[1] = biological target: human activated kallikrein enzyme (Homo sapiens, UniProt P03952); assay: Plasma kallikrein inhibition, fluorogenic PFR-AMC substrate, 500 pM activated kallikrein format; type: biochemical; settings: 500 pM activated kallikrein, 300 uM PFR-AMC, 30 min preincubation, 10 min reaction; read-out: Primary Dose Response Assay: Average EC50
Summary of the method: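 Enzyme (500 pM) was preincubated with inhibitor for 30 min at room temperature in 20 mM Tris pH 7.5, 1 mM EDTA, 150 mM NaCl, 0.1% PEG-400 and 0.1% Triton X-100. The reaction was started with 300 uM PFR-AMC, run 10 min, and fluorescence read at 460 nm (380 nm excitation). EC50 derived.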

plasma kallikrein = biological target: T1, plasma kallikrein (Homo sapiens, UniProt P03952); assay: Neat human plasma assay, FXIIa contact pathway-activated, PFR-AMC substrate; type: biochemical; settings: citrated human plasma 78% final, 10 nM human FXIIa, 100 μM PFR-AMC; read-out: Human Plasma Assay: IC90
T1 construct: from tissue
Summary of the method: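 Citrated human plasma (78% final) with compound, contact-activated by 10 nM human FXIIa in pKal buffer pH 7.5, with 100 μM PFR-AMC. Fluorescence (360/480 nm) followed 5 min at room temperature; rates versus concentration fitted by 4-parameter equation for IC50/IC90.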

T1 sequence (P03952 391-638 limits assumed): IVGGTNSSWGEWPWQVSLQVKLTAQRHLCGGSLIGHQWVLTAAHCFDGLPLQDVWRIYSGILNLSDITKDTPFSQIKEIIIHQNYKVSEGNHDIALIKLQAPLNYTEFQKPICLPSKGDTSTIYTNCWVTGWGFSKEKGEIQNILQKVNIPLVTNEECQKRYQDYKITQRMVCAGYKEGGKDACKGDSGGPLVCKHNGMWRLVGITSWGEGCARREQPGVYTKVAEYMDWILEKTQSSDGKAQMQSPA
T1 sequence (P03952 20-390 partner limits assumed): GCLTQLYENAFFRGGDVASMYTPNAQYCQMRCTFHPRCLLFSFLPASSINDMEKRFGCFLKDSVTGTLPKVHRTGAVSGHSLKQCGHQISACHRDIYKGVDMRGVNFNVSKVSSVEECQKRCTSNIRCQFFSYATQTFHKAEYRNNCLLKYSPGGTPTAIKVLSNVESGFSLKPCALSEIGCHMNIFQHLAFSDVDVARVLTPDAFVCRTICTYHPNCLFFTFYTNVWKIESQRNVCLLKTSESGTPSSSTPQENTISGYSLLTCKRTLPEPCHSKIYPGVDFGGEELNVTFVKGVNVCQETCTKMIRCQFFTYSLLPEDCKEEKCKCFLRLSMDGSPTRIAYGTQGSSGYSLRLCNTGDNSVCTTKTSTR
human activated kallikrein enzyme, sequence (P03952 391-638 limits assumed): as the sequence (P03952 391-638 limits assumed) above
human activated kallikrein enzyme, sequence (P03952 20-390 partner limits assumed): as the sequence (P03952 20-390 partner limits assumed) above

Row | Compound | pEC50 [1] | IC90 (plasma kallikrein) [nM]
1 | Cc1ccnc([C@H]2C[C@@H]2C(=O)Nc2cc(OCc3cn4cc(C5CC5)ccc4n3)cnn2)n1 [Example 568, (1S,2S)-N-(5-((6-cyclopropylimidazo[1,2-a]pyridin-2-yl)methoxy)pyridazin-3-yl)-2-(4-methylpyrimidin-2-yl)cyclopropane-1-carboxamide] | > 9.00 | 1500 to 10000
2 | COC(=O)CN1C(=O)CN(c2cc(C3CC3)cn3cc(COc4cc(NC(=O)[C@H]5C[C@@H]5c5nccc(C)n5)nc(C)n4)nc23)C1=O [Example 550, methyl 2-(3-(6-cyclopropyl-2-(((2-methyl-6-((1S,2S)-2-(4-methylpyrimidin-2-yl)cyclopropane-1-carboxamido)pyrimidin-4-yl)oxy)methyl)imidazo[1,2-a]pyridin-8-yl)-2,5-dioxoimidazolidin-1-yl)acetate] | > 9.00 | 400 to 1500
3 | Cc1ncnc([C@H]2C[C@@H]2C(=O)Nc2cc(NCc3cn4cc(C5CC5)cc(N5CC(=O)N(C)C5=O)c4n3)ncn2)n1 (racemic) [Example 495, rac-(1S*,2S*)-N-(6-(((6-cyclopropyl-8-(3-methyl-2,4-dioxoimidazolidin-1-yl)imidazo[1,2-a]pyridin-2-yl)methyl)amino)pyrimidin-4-yl)-2-(4-methyl-1,3,5-triazin-2-yl)cyclopropane-1-carboxamide] | 8.00 to 9.00 | 400 to 1500
4 | Cc1ccnc([C@H]2C[C@@H]2C(=O)Nc2cc(N[C@H](C)c3cn4cc(C(C)C)cc(N5CC(=O)N(C)C5=O)c4n3)ncn2)n1 [Example I-679, (1S,2S)—N-(6-(((R)-1-(6-isopropyl-8-(3-methyl-2,4-dioxoimidazolidin-1-yl)imidazo[1,2-a]pyridin-2-yl)ethyl)amino)pyrimidin-4-yl)-2-(4-methylpyrimidin-2-yl)cyclopropane-1-carboxamide] | > 9.00 | < 400
5 | COc1ccnc([C@H]2C[C@@H]2C(=O)Nc2cc(N[C@H](C)c3cn4cc(C5CC5)cc(N5CC(=O)N(C)C5=O)c4n3)ncn2)n1 (relative stereo) [Example 529, rac-(1S*,2S*)-N-(6-(((R)-1-(6-cyclopropyl-8-(3-methyl-2,4-dioxoimidazolidin-1-yl)imidazo[1,2-a]pyridin-2-yl)ethyl)amino)pyrimidin-4-yl)-2-(4-methoxypyrimidin-2-yl)cyclopropane-1-carboxamide] | > 9.00 | 400 to 1500
6 | Cc1ccnc([C@H]2C[C@@H]2C(=O)Nc2cncc(NCc3cn4cc(C5CC5)cc(N5CC(=O)N(C)C5=O)c4n3)n2)n1 (racemic) [Example 526, rac-(1S*,2S*)-N-(6-(((6-cyclopropyl-8-(3-methyl-2,4-dioxoimidazolidin-1-yl)imidazo[1,2-a]pyridin-2-yl)methyl)amino)pyrazin-2-yl)-2-(4-methylpyrimidin-2-yl)cyclopropane-1-carboxamide] | > 9.00 | 400 to 1500
7 | O=C(Nc1cc(NCc2cn3cc(C4CC4)cc(CO)c3n2)ccn1)[C@H]1C[C@@H]1c1cccc(Cl)c1 [Example 99, (1S,2S)-2-(3-chlorophenyl)-N-(4-(((6-cyclopropyl-8-(hydroxymethyl)imidazo[1,2-a]pyridin-2-yl)methyl)amino)pyridin-2-yl)cyclopropane-1-carboxamide] | > 9.00 | 400 to 1500

Results, then the compound that gave them:

Row | pEC50 [1] | IC90 (plasma kallikrein) [nM] | Compound
8 | > 9.00 | < 400 | O=C1CN(c2cc(C3CC3)cn3cc([C@H]4C[C@H](O)CN4c4cc(NC(=O)[C@H]5C[C@@H]5c5cc(Cl)ccn5)ncn4)nc23)C(=O)N1 [Example 475, (1S,2S)-2-(4-chloropyridin-2-yl)-N-(6-((2R,4S)-2-(6-cyclopropyl-8-(2,4-dioxoimidazolidin-1-yl)imidazo[1,2-a]pyridin-2-yl)-4-hydroxypyrrolidin-1-yl)pyrimidin-4-yl)cyclopropane-1-carboxamide]
9 | > 9.00 | < 400 | Cc1cc(NCc2cn3cc(C4CC4)cc(N4CC(=O)N(C)C4=O)c3n2)nc(NC(=O)[C@H]2C[C@@H]2c2nccc(C)n2)n1 (racemic) [Example 519, rac-(1S*,2S*)-N-(4-(((6-cyclopropyl-8-(3-methyl-2,4-dioxoimidazolidin-1-yl)imidazo[1,2-a]pyridin-2-yl)methyl)amino)-6-methylpyrimidin-2-yl)-2-(4-methylpyrimidin-2-yl)cyclopropane-1-carboxamide]
10 | 8.00 to 9.00 | 400 to 1500 | COc1ccc(C#N)c([C@H]2C[C@@H]2C(=O)Nc2cc(OCc3cn4cc(C5CC5)cc(N5CC(=O)N(C)C5=O)c4n3)cnn2)c1 (racemic) [Example 559, rac-(1S*,2S*)-2-(2-cyano-5-methoxyphenyl)-N-(5-((6-cyclopropyl-8-(3-methyl-2,4-dioxoimidazolidin-1-yl)imidazo[1,2-a]pyridin-2-yl)methoxy)pyridazin-3-yl)cyclopropane-1-carboxamide]
11 | 8.00 to 9.00 | 400 to 1500 | Cc1ccnc([C@H]2C[C@@H]2C(=O)Nc2cc(NCc3cn4cc(C5CC5)cc(N5CC(=O)N(C)C5=O)c4n3)nc(C3(F)COC3)n2)n1 (racemic) [Example 114, rac-(1S*,2S*)—N-(6-(((6-cyclopropyl-8-(3-methyl-2,4-dioxoimidazolidin-1-yl)imidazo[1,2-a]pyridin-2-yl)methyl)amino)-2-(3-fluorooxetan-3-yl)pyrimidin-4-yl)-2-(4-methylpyrimidin-2-yl)cyclopropane-1-carboxamide]
12 | > 9.00 | < 400 | Cc1ccnc([C@H]2C[C@@H]2C(=O)Nc2ncc(C(F)(F)F)c(NCc3cn4cc(C5CC5)cc(N5CC(=O)N(C)C5=O)c4n3)n2)n1 (racemic) [Example 518, rac-(1S*,2S*)-N-(4-(((6-cyclopropyl-8-(3-methyl-2,4-dioxoimidazolidin-1-yl)imidazo[1,2-a]pyridin-2-yl)methyl)amino)-5-(trifluoromethyl)pyrimidin-2-yl)-2-(4-methylpyrimidin-2-yl)cyclopropane-1-carboxamide]
13 | > 9.00 | 400 to 1500 | Cc1ccnc([C@H]2C[C@@H]2C(=O)Nc2cc(NCc3cn4cc(C5CC5)cc(N5CCCC5=O)c4n3)ncn2)n1 [Example 377, (1S,2S)-N-(6-(((6-cyclopropyl-8-(2-oxopyrrolidin-1-yl)imidazo[1,2-a]pyridin-2-yl)methyl)amino)pyrimidin-4-yl)-2-(4-methylpyrimidin-2-yl)cyclopropane-1-carboxamide]
14 | > 9.00 | 1500 to 10000 | O=C(Nc1cc(NCc2cn3cc(C4CC4)cc(N4CCOC4=O)c3n2)ncn1)[C@H]1C[C@@H]1c1cccc(Cl)c1 [Example I-174, (1S,2S)-2-(3-chlorophenyl)-N-(6-(((6-cyclopropyl-8-(2-oxooxazolidin-3-yl)imidazo[1,2-a]pyridin-2-yl)methyl)amino)pyrimidin-4-yl)cyclopropane-1-carboxamide]
15 | > 9.00 | < 400 | Cc1cc(N2CC(=O)N(C)C2=O)c2nc([C@@H](C)Nc3cc(NC(=O)[C@H]4C[C@@H]4c4nccc(C)n4)ncn3)cn2c1 [Example 423, (1S,2S)-N-(6-(((R)-1-(6-methyl-8-(3-methyl-2,4-dioxoimidazolidin-1-yl)imidazo[1,2-a]pyridin-2-yl)ethyl)amino)pyrimidin-4-yl)-2-(4-methylpyrimidin-2-yl)cyclopropane-1-carboxamide]

From patent publication US20240228488A1 (TAKEDA PHARMACEUTICAL COMPANY LIMITED, priority 2021, published 2024)
